# According to patent publication US20230406883A1, “COMPOUNDS AND THEIR USE IN TREATMENT OF TACHYKININ RECEPTOR MEDIATED DISORDERS” (Embark Biotech ApS, priority 2020, published 2023):
# “And” between values parts separate entries of the source, which are not always exact repeats. Equal values may be shown once. Read-outs that look alike come from different tables or passages of the source. Numbered stars: 1 amine (or outer) side, 2 acyl side, 3 side chain; on linkers, the order of the positions; unused ones are H or OH. Square brackets hold non-standard residues; d marks the D form. Peptide text beside a SMILES is read from it. * marks the point of attachment. C18 diacid = O=C(O)CCCCCCCCCCCCCCCCC(=O)*; Phe(4-F) = N[C@@H](Cc1ccc(F)cc1)C(=O)O; γGlu = O=C(O)[C@H](CCC(=O)[*:2])N[*:1]; NMeL = CN[C@@H](CC(C)C)C(=O)O; hSer = N[C@@H](CCO)C(=O)O; Nle = CCCC[C@H](N)C(=O)O; AEEA = NCCOCCOCC(=O)O
# Assays:
# hNK2R [1] = biological target: T1, hNK2R (Homo sapiens, UniProt P21452); assay: 3H-NKA competitive binding on transfected COS-7 cells; details: competition with 3H-NKA, 4 h at 4 C
# T1 construct: host or cells: COS-7
# T1 sequence (P21452 1-398): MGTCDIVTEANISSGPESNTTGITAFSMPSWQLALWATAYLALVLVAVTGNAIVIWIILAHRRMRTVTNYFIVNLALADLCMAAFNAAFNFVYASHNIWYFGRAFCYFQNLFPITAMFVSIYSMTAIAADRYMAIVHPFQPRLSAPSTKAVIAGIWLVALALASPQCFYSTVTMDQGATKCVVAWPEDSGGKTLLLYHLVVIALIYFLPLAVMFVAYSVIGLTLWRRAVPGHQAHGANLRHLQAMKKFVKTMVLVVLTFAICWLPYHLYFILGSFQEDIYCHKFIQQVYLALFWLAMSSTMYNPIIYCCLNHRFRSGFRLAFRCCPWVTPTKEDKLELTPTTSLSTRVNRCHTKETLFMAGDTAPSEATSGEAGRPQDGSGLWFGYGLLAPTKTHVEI
# Protocol: (§1) Assays were carried out using COS-7 cells transiently transfected by calcium phosphate transfection with a vector pcDNA3.1(+) encoding one of the indicated receptors (Genscript). Briefly, DNA mixed with CaCl2 (2 M) and TE-buffer (10 mM Tris-HCl, 1 mM EDTA, pH 7.5) was dropwise added to 2×HBS (50 mM HEPES, 280 mM NaCl, 1.5 mM NaH2PO4, pH 7.2) and incubated for 45 min at room temperature (22±2° C.). The mixture and a final concentration of 100 μM Chloroquine were added to the cells and left to incubate for 5 hours at 37° C. under standard cell culture conditions (10% CO2) before changing medium to fresh maintenance medium.
# The ^3H-NKA binding assay measures peptide-receptor binding by a competitive principle of receptor binding between radioactively labelled (3H) NKA (tracer) and synthesized peptide ligands on live cells expressing the receptor of interest. Assay solutions used: TKR buffer (50 mM Tris/HCl pH 7.5, 5 mM MnCl2, and 150 mM NaCl), wash buffer (TKR buffer+0.2% w/v OvAlb), binding buffer (wash buffer+0.1 mg/ml Bacitracin), and tracer solution (binding buffer+˜15000 cpm/well ^3H-tracer). The assay was performed on ice the day after transfection.
# Briefly, maintenance medium was aspirated, and plates were washed ×1 in cold wash buffer before adding 100 μl cold binding buffer and placing at 4° C. to let plates cool. The cold plates were added indicated peptides (ligand) immediately followed by addition of cold tracer solution (˜15000 cpm/well). Plates were immediately moved to 4° C. and incubated for 4 hours. After incubation, binding was stopped by wash ×2 with cold wash buffer before adding 225 μl Ultima Gold XR. Plates were shaken at medium speed for approximately 30 min and left overnight at room temperature before counting the plates in a MicroBeta plate counter (Perkin Elmer).
# hNK2R [2] = biological target: T1, hNK2R; assay: Hithunter cAMP assay (Gs-coupling) in transfected COS-7 cells; format: cell-based; details: for EC50 / hNK2R, cAMP Efficacy: COS-7 cells
# Protocol: as §1, with “As a secondary measure of agonist-induced G-protein coupled receptor (GPCR) activation cyclin adenosine monophosphate (cAMP) was measured by the Hithunter cAMP-assay from DiscoverX. Assays” for “Assays”
# The cAMP-assay takes advantage of the tachykinin receptors' ability to induce production of the cAMP second messenger upon agonist (ligand) binding on receptor expressing cells. Production of cAMP stems from receptor coupling to Gs-protein although coupling to Gq-protein (IP3-production) is considered the primary signalling mechanism by tachykinin receptors.
# The assay was performed the day after transfection. Briefly, maintenance medium was aspirated, and plates were washed ×1 in HBSS before adding assay buffer (HBSS+1 mM IBMX), pre-incubated for 30 min at 37° C. followed by 15 min incubation with agonist (ligand) at 37° C. After incubation, plates were subjected to cell lysis and anti-cAMP-antibody incubation as described by manufacturer. Luminescence was measured with EnVision Multimode Plate Reader from Perkin Elmer.
# hNK3R = biological target: T2, hNK3R (Homo sapiens, UniProt P29371); assay: IP3 assay (inositol trisphosphate, 3H-myoinositol) in transiently transfected COS-7 cells; format: cell-based; details: for EC50: 0.2% ovalbumin buffer, read-out: hNK3, IP3 EC50
# T2 construct: host or cells: COS-7
# T2 sequence (P29371 1-465): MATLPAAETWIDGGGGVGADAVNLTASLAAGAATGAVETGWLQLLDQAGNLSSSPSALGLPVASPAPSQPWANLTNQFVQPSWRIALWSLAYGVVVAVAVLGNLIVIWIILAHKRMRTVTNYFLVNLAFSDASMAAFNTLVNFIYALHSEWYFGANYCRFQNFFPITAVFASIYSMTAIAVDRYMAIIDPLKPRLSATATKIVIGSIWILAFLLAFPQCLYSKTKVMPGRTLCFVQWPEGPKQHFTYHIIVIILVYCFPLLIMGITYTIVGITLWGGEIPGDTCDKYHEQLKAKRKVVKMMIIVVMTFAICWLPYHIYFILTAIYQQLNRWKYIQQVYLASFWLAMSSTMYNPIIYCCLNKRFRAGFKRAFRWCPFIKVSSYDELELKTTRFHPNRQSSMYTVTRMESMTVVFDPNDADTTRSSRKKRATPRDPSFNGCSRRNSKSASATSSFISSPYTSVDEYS
# Outline: (§2)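 COS-7 cells were transiently transfected with receptor plasmid and labelled with ³H-myo-inositol. Cells were lysed in formic acid, and ³H-inositol phosphates were captured on SPA YSI beads and counted.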
# hNK2R [3] = biological target: T1, hNK2R; assay: as above; format: cell-based; details: COS-7 cells; for EC50: 0.2% ovalbumin buffer; for hNK2R, IP3 Efficacy: figure legends: percent of 10^-6 M NKA
# Outline: as §2
# hNK1R = biological target: T3, hNK1R (Homo sapiens, UniProt P25103); assay: as above; format: cell-based; details: for EC50: 0.2% ovalbumin buffer
# T3 construct: host or cells: COS-7
# T3 sequence (P25103 whole entry): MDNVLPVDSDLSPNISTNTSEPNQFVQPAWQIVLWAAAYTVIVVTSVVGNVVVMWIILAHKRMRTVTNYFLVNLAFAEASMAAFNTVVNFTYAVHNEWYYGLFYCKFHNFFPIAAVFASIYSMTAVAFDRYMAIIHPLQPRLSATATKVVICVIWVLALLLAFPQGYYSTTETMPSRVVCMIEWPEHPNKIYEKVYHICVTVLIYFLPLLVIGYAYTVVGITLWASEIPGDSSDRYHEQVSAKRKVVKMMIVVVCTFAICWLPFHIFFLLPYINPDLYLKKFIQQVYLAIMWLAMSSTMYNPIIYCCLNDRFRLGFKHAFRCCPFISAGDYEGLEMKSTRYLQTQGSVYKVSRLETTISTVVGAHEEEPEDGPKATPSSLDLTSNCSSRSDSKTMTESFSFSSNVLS
# Outline: as §2
# [4] = COS-7 cells, figure legends: percent of 10^-6 M NKA
EC50 (hNK2R [1]) [nM],EC50 (hNK2R [2]) [nM],"hNK2R, cAMP Efficacy (hNK2R [2]) [%]",EC50 (hNK3R; COS-7 cells) [nM],"hNK3, IP3 Efficacy (hNK3R; [4])",EC50 (hNK2R [3]) [nM],"hNK2R, IP3 Efficacy (hNK2R [3])",EC50 (hNK1R; COS-7 cells),"hNK1R, IP3 Efficacy (hNK1R; [4])","Gs activation (cAMP), in words (hNK2R [2])",SMILES,"hNK3, IP3 Efficacy (hNK3R) [%]","hNK1R, IP3 Efficacy (hNK1R) [%]"
41,20,100,~160,50%,12,120%,20 nM,100%,–,"CSCC[C@H](NC(=O)[C@H](CC(C)C)N(C)C(=O)CNC(=O)[C@@H](NC(=O)[C@H](Cc1ccc(O)cc1)NC(=O)[C@H](CCCCN)NC(=O)[C@H](CC(=O)O)NC(=O)COCCOCCNC(=O)COCCOCCNC(=O)CC[C@H](NC(=O)CCCCCCCCCCCCCCCCC(=O)O)C(=O)O)C(C)C)C(N)=O [compound 316, *Asp;Lys;Tyr;Val;Gly;NmLeu;Met;NH2] ({C18 diacid-γGlu-AEEA-AEEA}-DKYVG[NMeL]M-NH2)",–,–
80,–,0,~3800,10% and 0%,4,80% and 75%,~26000 nM and ~27000 nM,30% and 25%,does not activate Gs,"CCCC[C@H](NC(=O)[C@H](CC(C)C)N(C)C(=O)CNC(=O)[C@@H](NC(=O)[C@H](Cc1ccc(O)cc1)NC(=O)[C@H](CCCCN)NC(=O)[C@H](CCC(=O)O)NC(=O)COCCOCCNC(=O)COCCOCCNC(=O)CC[C@H](NC(=O)CCCCCCCCCCCCCCCCC(=O)O)C(=O)O)C(C)C)C(N)=O [compound 336, *Glu;Lys;Tyr;Val;Gly;NmLeu;Nle;NH2] ({C18 diacid-γGlu-AEEA-AEEA}-EKYVG[NMeL][Nle]-NH2)",–,–
27,~1.3,50,–,0%,2.5,90%,–,20%,–,"CC(C)C[C@@H](C(=O)N[C@@H](Cc1ccccc1)C(N)=O)N(C)C(=O)CNC(=O)[C@@H](NC(=O)[C@H](Cc1ccc(O)cc1)NC(=O)[C@H](CCCCN)NC(=O)[C@H](CC(=O)O)NC(=O)COCCOCCNC(=O)COCCOCCNC(=O)CC[C@H](NC(=O)CCCCCCCCCCCCCCCCC(=O)O)C(=O)O)C(C)C [compound 353, *Asp;Lys;Tyr;Val;Gly;NmLeu;Phe;NH2] ({C18 diacid-γGlu-AEEA-AEEA}-DKYVG[NMeL]F-NH2)",–,–
76,54,80,~190,25%,1.7,90%,~250 nM,40%,–,"CC(C)C[C@@H](C(=O)N[C@@H](Cc1ccc(F)cc1)C(N)=O)N(C)C(=O)CNC(=O)[C@@H](NC(=O)[C@H](Cc1ccc(O)cc1)NC(=O)[C@H](CCCCN)NC(=O)[C@H](CC(=O)O)NC(=O)COCCOCCNC(=O)COCCOCCNC(=O)CC[C@H](NC(=O)CCCCCCCCCCCCCCCCC(=O)O)C(=O)O)C(C)C [compound 369, *Asp;Lys;Tyr;Val;Gly;NmLeu;4-F-Phe;NH2] ({C18 diacid-γGlu-AEEA-AEEA}-DKYVG[NMeL][Phe(4-F)]-NH2)",–,–
25,–,–,–,0%,5.4,72% and 70%,205 nM and 200 nM,52% and 30%,–,"CCCC[C@H](NC(=O)[C@H](CC(C)C)NC(=O)CNC(=O)[C@@H](NC(=O)[C@H](Cc1ccc(O)cc1)NC(=O)[C@H](CCCCN)NC(=O)[C@H](CC(=O)O)NC(=O)COCCOCCNC(=O)COCCOCCNC(=O)CC[C@H](NC(=O)CCCCCCCCCCCCCCCCC(=O)O)C(=O)O)C(C)C)C(N)=O [compound 392, *Asp;Lys;Tyr;Val;Gly;Leu;Nle;NH2] ({C18 diacid-γGlu-AEEA-AEEA}-DKYVGL[Nle]-NH2)",–,–

SMILES,EC50 (hNK2R [1]) [nM],EC50 (hNK2R [2]) [nM],"hNK2R, cAMP Efficacy (hNK2R [2]) [%]",EC50 (hNK3R; COS-7 cells) [nM],"hNK3, IP3 Efficacy (hNK3R; [4])",EC50 (hNK2R [3]) [nM],"hNK2R, IP3 Efficacy (hNK2R [3])",EC50 (hNK1R; COS-7 cells),"hNK1R, IP3 Efficacy (hNK1R; [4])","Gs activation (cAMP), in words (hNK2R [2])","hNK3, IP3 Efficacy (hNK3R) [%]","hNK1R, IP3 Efficacy (hNK1R) [%]"
"COCC[C@H](NC(=O)[C@H](CC(C)C)N(C)C(=O)CNC(=O)[C@@H](NC(=O)[C@H](Cc1ccc(O)cc1)NC(=O)[C@H](CCCCN)NC(=O)[C@H](CC(=O)O)NC(=O)COCCOCCNC(=O)COCCOCCNC(=O)CC[C@H](NC(=O)CCCCCCCCCCCCCCCCC(=O)O)C(=O)O)[C@@H](C)O)C(N)=O [compound 366, *Asp;Lys;Tyr;Thr;Gly;NmLeu;Metox;NH2] ({C18 diacid-γGlu-AEEA-AEEA}-DKYTG[NMeL][hSer](Me)-NH2)",~104,~120,80,–,0%,12,100%,–,0%,–,–,–
"COCC[C@H](NC(=O)[C@H](CC(C)C)NC(=O)CNC(=O)[C@@H](NC(=O)[C@H](Cc1ccc(O)cc1)NC(=O)[C@H](CCCCN)NC(=O)[C@H](CC(=O)O)NC(=O)COCCOCCNC(=O)COCCOCCNC(=O)CC[C@H](NC(=O)CCCCCCCCCCCCCCCCC(=O)O)C(=O)O)C(C)C)C(N)=O [compound 393, *Asp;Lys;Tyr;Val;Gly;Leu;Metox;NH2] ({C18 diacid-γGlu-AEEA-AEEA}-DKYVGL[hSer](Me)-NH2)",40,–,–,–,36%,10,100%,342 nM and 3400 nM,52%,–,30,50
"COCC[C@H](NC(=O)[C@H](CC(C)C)NC(=O)[C@@H](CO)NC(=O)[C@@H](NC(=O)[C@H](Cc1ccc(O)cc1)NC(=O)[C@H](CCCCN)NC(=O)[C@H](CC(=O)O)NC(=O)COCCOCCNC(=O)COCCOCCNC(=O)CC[C@H](NC(=O)CCCCCCCCCCCCCCCCC(=O)O)C(=O)O)C(C)C)C(N)=O [compound 396, *Asp;Lys;Tyr;Val;dSer;Leu;Metox;NH2] ({C18 diacid-γGlu-AEEA-AEEA}-DKYV[dS]L[hSer](Me)-NH2)",316,–,–,–,0%,20,92%,–,0%,–,–,–
